From the NIST ThermoML archive (doi:10.1016/j.jct.2012.04.025)
Numbers after ± are expanded uncertainties.

test: molar heat capacity at constant pressure; settings: 298.15 K; 101.33 kPa; Liquid; High-precision drop calorimeter

In order of falling “molar heat capacity at constant pressure” value:
1. CCCCCCCCCCCCn1cc[n+](C)c1.O=S(=O)([N-]S(=O)(=O)C(F)(F)F)C(F)(F)F  820.2 ± 8 J/K/mol
2. CCCCCCCCCCn1cc[n+](C)c1.O=S(=O)([N-]S(=O)(=O)C(F)(F)F)C(F)(F)F  754.5 ± 7 J/K/mol
3. CCCCCCCCn1cc[n+](C)c1.O=S(=O)([N-]S(=O)(=O)C(F)(F)F)C(F)(F)F  690.2 ± 7 J/K/mol
4. CCCCCCCn1cc[n+](C)c1.O=S(=O)([N-]S(=O)(=O)C(F)(F)F)C(F)(F)F  659.2 ± 6 J/K/mol
5. CCCCCC[n+]1ccn(C)c1.O=S(=O)([N-]S(=O)(=O)C(F)(F)F)C(F)(F)F  629.4 ± 6 J/K/mol
6. CCCCCn1cc[n+](C)c1.O=S(=O)([N-]S(=O)(=O)C(F)(F)F)C(F)(F)F  595.6 ± 6 J/K/mol
7. CCCC[n+]1ccn(C)c1.O=S(=O)([N-]S(=O)(=O)C(F)(F)F)C(F)(F)F  565.9 ± 5 J/K/mol
8. CCCn1cc[n+](C)c1.O=S(=O)([N-]S(=O)(=O)C(F)(F)F)C(F)(F)F  534.9 ± 5 J/K/mol
9. CCn1cc[n+](C)c1.O=S(=O)([N-]S(=O)(=O)C(F)(F)F)C(F)(F)F  504.8 ± 5 J/K/mol
